# Measurements published in BindingDB's records for doi:10.1021/jm960128k (University of Illinois At Chicago, 1996).
# Biological target: T1, Dimer of Gag-Pol polyprotein [489-587] (Human immunodeficiency virus 1, UniProt P12497)
# T1 construct: 489-587
# Assay: Protease Inhibition Assay
# Settings: pH 5.5; 30 °C
# Description: The IC50 values for the compounds were determined using purified HIV-1 Protease. Inhibition of the cleavage of the peptide H-Val-Ser-Gln-Asn-(L-beta-napthylalanine)-Pro-Ile-Val-OH was assessed at 30 °C, pH = 5.5 with [Enzyme] = 30 pM for 1 h, using HPLC with UV detection for quantification of the products. For the IC50 data a substrate concentration of 0.4 mg/mL was used, and data was fit to a four parameter sigmoidal equation.
compound,measurement,value
"CC(C)(C)NC(=O)[C@@H]1C[C@@H]2CCCC[C@@H]2CN1C[C@@H](O)[C@H](Cc1ccccc1)NC(=O)O[C@@H]1CO[C@@H]2CCO[C@@H]21 [(3R,3aS,6aR)-hexahydrofuro[3,2-b]furan-3-yl N-[(2S,3R)-4-[(3S,4aS,8aS)-3-(tert-butylcarbamoyl)-decahydroisoquinolin-2-yl]-3-hydroxy-1-phenylbutan-2-yl]carbamate]",IC50,> 3 µM
